From patent publication US20230382863A1, “MEK INHIBITORS AND USES THEREOF” (Ikena Oncology, Inc., priority 2022, published 2023)

What was measured:
[1] = Cassette pharmacokinetics studies in mice; type: in vivo; conditions: male, Balb/c, plasma; Mouse, PO, 5 mg/kg
Method: Pharmacokinetics studies were conducted using cassette dosing protocols, with test compounds administered per mouse. Treatment groups were 3 mice (˜6-8 weeks old, ˜20-30 g Balb/c male mice) per route of administration. Compounds were formulated in 5% DMSO and 95% PEG400 with final concentrations of 0.5 mg/mL for IV and PO dosing. Compounds were dosed at 2 mg/kg for IV dosing and 5 mg/kg for PO dosing. Blood samples were withdrawn at 0.083, 0.25, 0.5, 1.0, 2.0, 4.0, 6.0, 8.0, and 24 hours following IV dosing, and 0.25, 0.5, 1.0, 2.0, 4.0, 6.0, 8.0, and 24 hours following PO dosing. Blood samples were centrifuged at 4,000 g for 5 minutes at 4° C. to obtain plasma samples. Plasma samples were diluted with acetonitrile containing internal standard, vortexed for 30 seconds, then centrifuged at 4,000 rpm for 15 minutes at 4° C. The supernatant was diluted with water, and compound concentration was determined by HPLC/MS/MS compared to calibration standards of 0.5-1,000 ng/mL.
Where route is listed as “IV*”, the compound was dosed IV at 1 mg/kg.

[2] = system: Phosphorylation of ERK1/2 in AsPC1 cells; assay: 4 hour pERK1/2 HTRF Assay; type: cell-based; conditions: Homo sapiens, ASPC1, read-out: pERK AsPC-1 HTRF (4 hour): Average IC50 (nM); AsPC-1, 4 hour
Method: AsPC1 cells were seeded at 20,000 cells/well overnight in 96-well plates, then treated with a 12-point dose response of compounds (Starting dose of 3000 nM and 3-fold dilution) for 4 hours. AsPC1 cells are a K-Ras mutant cell line. Phosphorylation of ERK1/2 on residues Thr202 and Tyr204 were detected using a Homogenous Time-Resolved Fluorescence (HTRF) assay (Cisbio Cat #64ERKPEG). Briefly, ERK phosphorylation was detected using a sandwich assay format using two phospho-ERK specific antibodies, one labelled with EU^3+-Cryptate (donor) and the second with d2 (acceptor). The Fluorescence Resonance Energy Transfer (FRET) towards the d2 acceptor was detected at a wavelength of 665 nm. ERK1/2 phosphorylation levels were normalized to total ERK1/2 protein levels in each well. IC50 values were determined by fitting a variable slope, four parameters curve to the compound concentration to normalized Phospho-ERK1/2 relationship.

MEK1-CRAF complex = MEK1-CRAF complex (Homo sapiens (Human), UniProt Q02750); assay: Stabilization of MEK1-CRAF complex assay (AlphaLISA); type: binding
Method: MEK1 was diluted to 4 nM, and nickel chelate donor beads and glutathione acceptor beads were diluted to 80 μg/mL. CRAF was diluted to a top concentration of 160 nM, which was subsequently diluted to 80, 40, 20, 10, 5, 2.5, 1.25, and 0.625 nM through 1:2 serial dilution.
Exemplary MEK inhibitor compounds (0, 0.01, 0.1, or 1 μM) were added to a 384-AlphaPlate (PerkinElmer, 6008350) by a digital liquid dispenser (Tecan D300e) based on a total volume of 20 μL reaction mixture.
5 μL 4×MEK1 stock solution was added to wells A1-P20 by multichannel pipettes. The plate was sealed with clear olefin sealing tape (Thermo Scientific, 232701), centrifuged at 1000 rpm for 1 minute, and incubated at room temperature for 30 minutes.
5 μL 4×CRAF stock solution at different concentrations or 5 μL or 10 μL AlphaLISA buffer was added by multichannel pipettes. The plate was sealed, centrifuged at 1000 rpm for 1 minute, and incubated at room temperature for 60 minutes.
5 μL 4×glutathione acceptor beads were first added to all wells by multichannel pipettes. The ambient light was subsequently adjusted to <100 lux (light meter) before adding 5 μL 4×nickel chelate donor beads to the same wells. From this step on, the plate was covered with a black plate cover, centrifuged at 1000 rpm for 1 minute, and incubated at room temperature for 60 minutes.
Data were collected on a PHERAStar FSX (BMG LABTECH) using the AlphaLISA module (excitation: 680 nm, emission: 615 nm), with a gain of 3600. The excitation time was 0.30 seconds, and data collection started after a 0.04-second delay for a total integration time of 0.60 seconds.
The individual AlphaLISA counts of wells with exemplary MEK inhibitor compound were divided by the average AlphaLISA counts of wells without compound to obtain AlphaLISA signal/background ratio (S/B). The dissociation constant (KD) of MEK1-CRAF was calculated using nonlinear regression curve fit in GraphPad PRISM® 9.0 software.

uMEK/BRAF = uMEK/BRAF (Homo sapiens (Human), UniProt Q02750); assay: MEK-RAF Binding Assay (uMEK/BRAF HTRF)
Pharmacokinetics in rat = type: in vivo; conditions: plasma, IV, 1 mg/kg; for Vd: read-out: Vdss
cancer cell lines = assay: In vitro MEK inhibitor drug combinations (Cell Titer Glo, Loewe synergy); type: cell-based; conditions: combination with I-2, 5 days
Method: Cell viability was determined by Cell Titer Glo assay. […] A normalized Loewe sum of synergy score of >10 was considered synergistic, <10, but >−10 additive, and <−10 antagonistic.

[3] = system: OCI-AML-3 xenograft (NRAS Q61L); assay: In vivo efficacy, OCI-AML-3 xenograft model; parameters: species or system mouse; conditions: OCI-AML-3 model, 100 mg/kg QD, Day 15
Method: (§1) The antitumor activity of exemplary MEK inhibitor compounds is evaluated in vivo using human cell line derived xenografts (CDX) grown in immunodeficient mice. For these studies, AsPC1 (pancreatic cell line with KRAS G12D mutation), NCI-H2122 (lung cell line with KRAS G12C mutation), and 5637 (bladder cell line with CRAF amplification) models are used. In addition, HCT-116 (colorectal cell line with KRAS G13D mutation), SKM-1 (AML cell line with KRAS K117N mutation), and OCI-AML-3 (AML cell line with NRAS Q61L mutation) models are used. The tumor cell lines (AsPC-1, NCI-H2122, 5637, and HCT-116 cells) are maintained in vitro as monolayer culture in medium at 37° C. in an atmosphere of 5% CO2 in air. The tumor cell lines (SKM-1 and OCI-AML-3 cells) are maintained in vitro as a suspension in medium at 37° C. in an atmosphere of 5% CO2 in air. The tumor cells are routinely sub-cultured before confluence by trypsin-EDTA treatment, not to exceed 4-5 passages. The cells growing in an exponential growth phase are harvested for tumor inoculation. AsPC1, NCI-H2122, and OCI-AML-3 tumors are implanted into Balb/c nude mice. HCT-116 tumors are implanted into Nu/Nu mice. 5637 and SKM-1 tumors are implanted into NOG mice. Each mouse is inoculated subcutaneously on the right flank with tumor cells in a 1:1 mixture with matrigel. Tumors are allowed to grow to approximately 150-200 mm^3. At this time, mice are assigned to groups such that the mean tumor volume is the same for each treatment group. The MEK inhibitor compound treatments are administrated to the tumor-bearing mice via oral gavage. Throughout the study, mouse body weight and tumor volume are recorded. The measurement of tumor size is conducted twice weekly with a caliper and recorded. The tumor volume (mm^3) is estimated using the formula: TV=a×b^2/2, where “a” and “b” are long and short diameters of a tumor, respectively.

[4] = system: SKM-1 xenograft (KRAS K117N); assay: In vivo efficacy, SKM-1 xenograft model; parameters: species or system mouse; conditions: SKM-1 model, 100 mg/kg QD, Day 22
Method: as §1

pERK HCT-116 (G13D) = pERK HCT-116 (G13D) ICW (4 hour); type: cell-based; conditions: Homo sapiens, read-out: pERK HCT-116 (G13D) ICW (4 hour): Average IC50 (nM)

Chain of MEK1-CRAF complex (Q02750 whole entry, looked up): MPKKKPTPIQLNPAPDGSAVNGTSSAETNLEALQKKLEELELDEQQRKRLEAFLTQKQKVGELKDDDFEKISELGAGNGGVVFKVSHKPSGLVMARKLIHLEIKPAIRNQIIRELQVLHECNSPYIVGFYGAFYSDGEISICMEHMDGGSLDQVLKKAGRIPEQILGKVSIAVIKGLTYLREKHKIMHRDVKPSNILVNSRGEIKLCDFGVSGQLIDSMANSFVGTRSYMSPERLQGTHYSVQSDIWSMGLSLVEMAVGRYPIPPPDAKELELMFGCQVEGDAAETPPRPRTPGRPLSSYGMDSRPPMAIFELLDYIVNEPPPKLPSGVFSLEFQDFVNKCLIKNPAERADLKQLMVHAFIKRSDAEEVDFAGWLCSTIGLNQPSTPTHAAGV
Chain of MEK1-CRAF complex (P04049 whole entry partner, looked up): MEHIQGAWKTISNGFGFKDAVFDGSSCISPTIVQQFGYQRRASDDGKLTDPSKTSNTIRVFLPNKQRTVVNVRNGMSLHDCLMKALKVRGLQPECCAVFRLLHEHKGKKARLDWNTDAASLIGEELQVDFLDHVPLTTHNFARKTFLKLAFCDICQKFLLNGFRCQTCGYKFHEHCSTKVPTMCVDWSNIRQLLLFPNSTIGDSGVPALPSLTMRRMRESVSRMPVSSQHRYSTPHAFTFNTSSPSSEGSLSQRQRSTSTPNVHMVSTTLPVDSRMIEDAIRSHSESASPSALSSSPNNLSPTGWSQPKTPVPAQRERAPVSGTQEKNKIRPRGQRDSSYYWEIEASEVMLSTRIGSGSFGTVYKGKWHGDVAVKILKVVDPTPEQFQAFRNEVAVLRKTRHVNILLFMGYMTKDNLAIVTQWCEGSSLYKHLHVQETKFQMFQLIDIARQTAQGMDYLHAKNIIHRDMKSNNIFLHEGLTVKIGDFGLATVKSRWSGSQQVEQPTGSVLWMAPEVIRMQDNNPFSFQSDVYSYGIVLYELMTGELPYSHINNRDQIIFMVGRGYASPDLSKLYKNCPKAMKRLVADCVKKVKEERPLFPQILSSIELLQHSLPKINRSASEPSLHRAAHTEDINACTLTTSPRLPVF
Chain of uMEK/BRAF (Q02750 whole entry): as the sequence (Q02750 whole entry, looked up) above

AUC(0-inf) [1] [ng·h/mL]	AUC(0-t) [1] [ng·h/mL]	Cmax [1] [ng/mL]	Tmax [1] [h]	half-life [1] [h]	IC50 [2] [nM]	KD Ratio (mean), compound to DMSO (MEK1-CRAF complex; compound 0.01 μM)	KD Ratio (mean), compound to DMSO (MEK1-CRAF complex; compound 0.1 μM)	KD Ratio (mean), compound to DMSO (MEK1-CRAF complex; compound 1 μM)	IC50 (uMEK/BRAF) [nM]	Structure (SMILES)	also measured
803	763	488	0.3	3.92	< 100	0.69	0.52	0.51	< 100	CCNS(=O)(=O)Nc1cccc(Oc2c(C(=O)NC3CC3)c(Nc3ccc(I)cc3F)n(C)c(=O)c2C)c1Cl [Compound I-43]	–
3800	3770	1430	0.6	2.8	< 100	–	–	–	< 100	Cc1c(Oc2cccc(NS(=O)(=O)NCC(F)(F)F)c2Cl)c(C(=O)NC2CC2)c(Nc2ccc(I)cc2F)n(C)c1=O [Compound I-46]	AUC(0-inf) (Pharmacokinetics in rat): 1590 ng·h/mL; AUC(0-t) (Pharmacokinetics in rat): 1550 ng·h/mL; clearance (Pharmacokinetics in rat): 10.5 mL/min/kg; half-life (Pharmacokinetics in rat): 1.86 h; Vd (Pharmacokinetics in rat): 1 L/kg
2940	2750	783	0.8	1.82	< 100	0.87	0.62	0.47	–	CNS(=O)(=O)Nc1cccc(Oc2c(C(=O)NC3CC3)c(Nc3ccc(I)cc3F)n(C)c(=O)c2C)c1OC(F)(F)F [Compound I-40]	–
–	–	–	–	–	–	–	–	–	–	O=C1CCc2c(Oc3ccc4c(c3)[C@@H]3[C@H](O4)[C@H]3c3nc4ccc(C(F)(F)F)cc4[nH]3)ccnc2N1 [Lifirafenib]	Loewe Synergy Score > 10 (cancer cell lines; NCI-H358, NCI-H1373, NCI-H2122): 3/3 cell lines
3470	3340	1260	0.5	1.62	–	0.79	0.57	0.48	–	CNS(=O)(=O)Nc1cccc(Oc2c(C(=O)NC(C)C)c(Nc3ccc(I)cc3F)n(C)c(=O)c2C)c1Cl [Compound I-41]	–
4540	4390	1670	0.5	1.6	–	0.58	0.36	0.35	–	CCNC(=O)c1c(Oc2cccc(NS(=O)(=O)NC)c2Cl)c(C)c(=O)n(C)c1Nc1ccc(I)cc1F [Compound I-54]	–
–	–	–	–	–	–	–	–	–	–	CC1(C)CCC(CN2CCN(c3ccc(C(=O)NS(=O)(=O)c4ccc(NCC5CCOCC5)c([N+](=O)[O-])c4)c(Oc4cnc5[nH]ccc5c4)c3)CC2)=C(c2ccc(Cl)cc2)C1 [venetoclax, reference compound]	percent TGI [3]: 13%; weight gain [3]: 8.3%; percent TGI [4]: 46.6%; weight gain [4]: 7.5%
–	–	–	–	–	–	–	–	–	–	C[C@H](Nc1ccc2c(c1)OCCn1cc(N3C(=O)OC[C@H]3C(F)F)nc1-2)C(N)=O [Inavolisib]	Loewe Synergy Score > 10 (cancer cell lines; AsPC-1, HPAF, MiaPACA2, NCI-H1373, NCI-H2122, PANC03276): 5/6 cell lines
1090	1090	801	0.4	1.58	< 100	0.76	0.58	0.51	< 100	COCCNS(=O)(=O)Nc1cccc(Oc2c(C(=O)NC3CC3)c(Nc3ccc(I)cc3F)n(C)c(=O)c2C)c1Cl [Compound I-55]	–
511	506	418	0.4	1.11	< 100	0.78	0.57	0.57	< 100	Cc1c(Oc2cccc(NS(=O)(=O)NC3CC3)c2Cl)c(C(=O)NC2CC2)c(Nc2ccc(I)cc2F)n(C)c1=O [Compound I-42]	AUC(0-inf) (Pharmacokinetics in rat): 217 ng·h/mL; AUC(0-t) (Pharmacokinetics in rat): 205 ng·h/mL; clearance (Pharmacokinetics in rat): 76.8 mL/min/kg; half-life (Pharmacokinetics in rat): 2.09 h; Vd (Pharmacokinetics in rat): 9.9 L/kg
–	–	–	–	–	–	–	–	–	< 100	Cc1c(Oc2cccc(N=S(C)(N)=O)c2)c(C(=O)NC2CC2)c(Nc2ccc(I)cc2F)n(C)c1=O (stereo in doubt) [Compound I-8, (R)-4-(3-((amino(methyl)oxo-lambda6-sulfaneylidene)amino)phenoxy)-N-cyclopropyl-2-((2-fluoro-4-iodophenyl)amino)-1,5-dimethyl-6-oxo-1,6-dihydropyridine-3-carboxamide]	IC50 (pERK HCT-116 (G13D)): < 100 nM
–	–	–	–	–	< 100	0.62	0.42	0.38	< 100	CNS(=O)(=O)Nc1cccc(Oc2c(C(=O)NCC(F)(F)F)c(Nc3ccc(I)cc3F)n(C)c(=O)c2C)c1Cl [Compound I-45]	–
–	–	–	–	–	–	–	–	–	< 100	CNS(=O)(=O)n1ccc2c(Oc3c(C(=O)NC4CC4)c(Nc4ccc(I)cc4F)n(C)c(=O)c3C)cccc21 [Compound I-12]	IC50 (pERK HCT-116 (G13D)): 1000 to 10000 nM
